The values that follow come from ChEMBL document CHEMBL1132726, “Antioxidant activity and xanthine oxidase inhibition activity of reductic acid: ascorbic acid analogue” (Bioorg Med Chem Lett, 2000).

Data set [1] has as its target T1, Xanthine dehydrogenase/oxidase (Bos taurus, UniProt P80457). The data set is described as follows: Compound was tested for the inhibition of xanthine oxidase; Active.
The target in data set [2] is T1, Xanthine dehydrogenase/oxidase. Kind of data set: Compound was tested for the inhibition of xanthine oxidase; Inactive.

Molecules are shown by their SMILES.

T1 sequence (P80457 whole entry): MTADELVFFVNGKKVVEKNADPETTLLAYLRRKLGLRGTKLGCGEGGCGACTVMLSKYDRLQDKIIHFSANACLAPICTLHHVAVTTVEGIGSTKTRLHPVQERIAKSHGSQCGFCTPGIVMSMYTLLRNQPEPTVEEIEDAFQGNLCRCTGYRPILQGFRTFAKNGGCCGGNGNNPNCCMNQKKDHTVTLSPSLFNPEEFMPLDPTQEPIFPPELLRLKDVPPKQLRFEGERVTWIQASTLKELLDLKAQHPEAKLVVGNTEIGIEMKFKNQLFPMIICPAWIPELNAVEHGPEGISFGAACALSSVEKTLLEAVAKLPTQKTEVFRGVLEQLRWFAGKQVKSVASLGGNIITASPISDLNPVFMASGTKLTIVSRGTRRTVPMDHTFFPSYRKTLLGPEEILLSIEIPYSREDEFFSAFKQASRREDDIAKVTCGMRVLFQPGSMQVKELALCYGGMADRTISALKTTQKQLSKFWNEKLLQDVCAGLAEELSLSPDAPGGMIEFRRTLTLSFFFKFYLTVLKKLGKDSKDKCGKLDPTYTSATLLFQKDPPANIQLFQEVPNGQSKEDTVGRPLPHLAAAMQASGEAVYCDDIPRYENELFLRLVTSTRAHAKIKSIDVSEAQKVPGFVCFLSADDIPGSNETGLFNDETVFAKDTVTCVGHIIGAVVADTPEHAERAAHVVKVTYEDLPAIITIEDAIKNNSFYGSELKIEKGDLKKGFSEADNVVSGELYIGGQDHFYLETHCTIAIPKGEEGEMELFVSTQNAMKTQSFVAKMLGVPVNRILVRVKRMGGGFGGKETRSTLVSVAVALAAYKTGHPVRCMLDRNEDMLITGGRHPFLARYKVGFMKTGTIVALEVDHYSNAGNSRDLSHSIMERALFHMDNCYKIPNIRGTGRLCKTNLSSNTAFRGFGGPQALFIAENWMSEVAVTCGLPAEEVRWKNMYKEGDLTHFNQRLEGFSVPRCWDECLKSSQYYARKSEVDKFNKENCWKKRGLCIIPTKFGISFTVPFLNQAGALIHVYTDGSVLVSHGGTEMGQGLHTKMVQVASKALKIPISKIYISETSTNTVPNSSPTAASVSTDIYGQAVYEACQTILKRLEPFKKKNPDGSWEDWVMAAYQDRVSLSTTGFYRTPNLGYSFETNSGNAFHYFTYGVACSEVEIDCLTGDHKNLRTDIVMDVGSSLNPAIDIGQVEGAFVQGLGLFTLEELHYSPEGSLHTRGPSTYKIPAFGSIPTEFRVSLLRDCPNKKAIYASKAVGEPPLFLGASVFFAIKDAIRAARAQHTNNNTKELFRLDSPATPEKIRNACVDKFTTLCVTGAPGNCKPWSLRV

With `O=C1CCC(O)=C1O`, the result in data set [1] was Active. Regarding `O=C1COC(O)=C1O`, the Activity result in data set [2] is on record as “Not Active”.

As to `O=C1O[C@H]([C@@H](O)CO)C(O)=C1O` [ASCORBIC ACID], the Activity result in data set [2] is recorded as “Not Active”.
